Experimental data as given in patent US8637038B2, “Methods for inhibiting allograft rejection” (Rigel Pharmaceuticals, Inc., priority 2011, dated 2014).
Where “and” joins values, the source holds several entries; their conditions need not be identical. Identical values can stand only once. Like-named read-outs stand apart in the source and are kept apart here.

How the values were obtained:
Lck/AZP70 = assay: Anti-CD3/CD28 T cell IL-2 production; format: cell-based; conditions: Homo sapiens
Description: The erythropoietin (EPO)-dependent survival of cultured human erythroid progenitor cells (CHEPs) was determined using CellTiter-Glo® Luminescent Cell Viability Assay (Promega). Human primary T cell activation was assessed by measuring IL-2 production by ELISA (R&D Systems, Minneapolis, Minn., USA) following plate-bound anti-CD3 and anti-CD28 stimulation (Anti-Human CD3; BD Biosciences; Anti-Human CD28; Immunotech; Prague, Czech Republic). The enzymatic activity of tryptase released by human cultured mast cells (CHMCs) upon stimulation with IgE was quantified by cleavage of the synthetic fluorescent peptide substrate Z-Ala-Lys-Arg-7-amino-4-methylcoumarin (MP Biomedicals, Solon, Ohio, USA) in tryptase buffer. B-cell receptor-dependent Erk phosphorylation was measured in Ramos cells by intracellular FACS (anti-pT202/pY204-ERK1/2-AlexaFluor488; BD Biosciences). Cell proliferation assays were performed using A549 epithelial cells and H1299 lung carcinoma cells using nuclear staining to measure cell numbers (4′6-diamidino-2-phenylindole, dihydrochloride (DAPI; Invitrogen, Darmstadt, Germany)).

[1] = tested on: BN-to-Lew heterotopic heart transplantations; assay: Graft survival study after 10-day treatment, with combination index; format: in vivo, rat; conditions: no medication 7±0 days
Text: Male Brown Norway (BN) and Lewis (Lew) rats weighing 350 g were purchased from Harlan (Indianapolis, Ind.) and were housed under conventional conditions. All animals were fed standard rat chow and water ad libitum and received humane care in compliance with the Principles of Laboratory Animal Care formulated by the National Society for Medical Research and the Guide for the care and Use of Laboratory Animals published by the National Institutes of Health (National Institutes of Health publication No. 85-23, revised 1985). Allogeneic (BN-to-Lew) and syngeneic (Lew-to-Lew) heterotopic heart transplantations were performed as described previously (Ono et al., J. Thorac. Cardiovasc. Surg. 57:225-229, 1969). In brief, rats were anaesthetized using 2% isoflurane. The donor received an intravenous bolus of 500 I.U. heparin. Cardiac arrest was achieved using 20 ml Bretschneider solution (Custodiol, Dr. F. Koehler Chemie, Bensheim, Germany). […] Heart-beating score was assessed directly after transplantation for each animal from score 0 (no palpable contraction) to 4 (strong and regular contraction). Only animals with beating scores of 4 were included into the study.
Compound I and Compound III were provided by Rigel (South San Francisco, Calif.) and Tacrolimus was provided by Astellas (Munich, Germany). All drugs were administrated orally each in two different concentrations: Compound I LD (15 mg/kg BID; n=6) and HD (60 mg/kg BID; n=6); Compound III LD (5 mg/kg BID; n=6) and HD (20 mg/kg BID; n=6); Tac LD (1 mg/kg QD; n=6) and HD (4 mg/kg QD; n=6). Administration of all drugs was performed every day at the same time points. Tacrolimus was applied only once a day (QD) every 24 hours. During administration of Compound I (BID) and Compound III (BID) a 12 hour pause was kept in between each drug application.
BN-to-Lew heterotopic heart transplantations were performed. Recipient animals were treated for 10 days according to Table 1 (10 day survival study group) and graft survival was monitored by daily palpation of the beating donor heart through the abdominal wall. Scoring was assessed according to heart-beating score of 0 to 4. The time of rejection was defined as the last day of palpable cardiac contractions and graft rejection was confirmed by laparotomy.
The median-effect principle of Chou (in Synergism and Antagonism in Chemotherapy, Chou and Rideout, eds, pp. 61-102, Academic Press, 1991) is based on the premise that the effect of each agent is related to its dose and, therefore, can be calculated using the following equation: (fa/fu)=(D/Dm)m, where fa and fu represent the fractions of the system that are affected (% inhibition or rather days of survival beyond controls) and unaffected (1−fa), respectively, by the drug at dose D. Full protection (fa=1) is defined as at least a 28-day survival of allografts. Dm is the dose required for 50% inhibition (ED50), the median effect (m) is a coefficient that describes the sigmoidicy of the dose-effect curve. The interaction between two drugs is assessed by the combination index (CI) equation for the doses to achieve x % inhibition:
[formula] for the mutually nonexclusive case, where each drug has a different mode of action. A computer software program was used to determine the dose-effect parameters (Dm, m, and r), and the CI values (CalcuSyn, Biosoft, Cambridge, United Kingdom).
Graft survival was monitored by daily palpation of the beating donor heart through the abdominal wall and treatment of animals was stopped after 10 days.

[2] = HD (Compound I 60 mg/kg BID, Compound III 20 mg/kg BID, Tac 4 mg/kg QD) for 10 days
[3] = LD (Compound I 15 mg/kg BID, Compound III 5 mg/kg BID, Tac 1 mg/kg QD) for 10 days

| SMILES | EC50 (Lck/AZP70; read-out: Anti-CD3/CD28 T cell IL-2 production EC50) | graft survival, mean [1, 2] | graft survival, mean [1, 3] | EC50 (Lck/AZP70; upstream kinases Lck/AZP70, read-out: Anti-CD3/CD28 T cell IL-2 production EC50) |
| --- | --- | --- | --- | --- |
| COc1cc(Nc2ncc(C)c(Nc3ccc4oc(=O)[nH]c4c3)n2)cc(C)c1C [Compound III, 5-(2-(3-methoxy-4,5-dimethylphenylamino)-5-methylpyrimidin-4-ylamino)benzol[d]oxazol-2-(3H)-one] | 19.7 ± 2.9 µM | 20 ± 4 days and 20 ± 2 days | 13 ± 2 days | – |
| COc1cc(Nc2ncc(C)c(Nc3ccc4oc(=O)[nH]c4c3)n2)cc(C)c1F [Compound I, 5-(2-(4-fluoro-3-methoxy-5-methylphenylamino)-5-methylpyrimidin-4-ylamino)benzo[d]oxazol-2(3H)-one] | – | 22 ± 5 days and 22 ± 6 days | 15 ± 3 days | 2.87 ± 0.118 µM |
